Test results reported in publication PMC7570694, “Design, Synthesis, and Structure–Activity Relationships of Thiazole Analogs as Anticholinesterase Agents for Alzheimer’s Disease” (Molecules, 2020).

The compounds below were run against BChE (Equus caballus, UniProt P81908) (assay: biochemical). Settings: read-out: BChE % Inhibition 10^−3 M, compound at 10^−3 M; mean ± SD.
Protocol: (§1) The reagents and materials used in the enzyme inhibition assay were supplied commercially from Sigma-Aldrich (St. Louis, MO, USA) and Fluka (Steinheim, Germany). The cholinesterase enzyme inhibition procedure was applied as previously reported in our research papers.
(§2) Moreover, the IC50 values were calculated with the help of GraphPad ‘PRISM’ software (version 5.0) by using a dose–response curve achieved by plotting the percentage inhibition versus the log concentration.
(§3) All of the attained 3-((2-(4-(4-(trifluoromethyl)phenyl)thiazol-2-yl)hydrazineylidene)methyl)-substituedphenyl derivatives were investigated with regard to their ability to inhibit the activity of cholinesterase enzymes using the in vitro modified Ellman’s spectrophotometric method previously described.
(§4) Therefore, the IC50 values of the selected compounds and reference agents were calculated.

BChE, sequence (P81908 whole entry): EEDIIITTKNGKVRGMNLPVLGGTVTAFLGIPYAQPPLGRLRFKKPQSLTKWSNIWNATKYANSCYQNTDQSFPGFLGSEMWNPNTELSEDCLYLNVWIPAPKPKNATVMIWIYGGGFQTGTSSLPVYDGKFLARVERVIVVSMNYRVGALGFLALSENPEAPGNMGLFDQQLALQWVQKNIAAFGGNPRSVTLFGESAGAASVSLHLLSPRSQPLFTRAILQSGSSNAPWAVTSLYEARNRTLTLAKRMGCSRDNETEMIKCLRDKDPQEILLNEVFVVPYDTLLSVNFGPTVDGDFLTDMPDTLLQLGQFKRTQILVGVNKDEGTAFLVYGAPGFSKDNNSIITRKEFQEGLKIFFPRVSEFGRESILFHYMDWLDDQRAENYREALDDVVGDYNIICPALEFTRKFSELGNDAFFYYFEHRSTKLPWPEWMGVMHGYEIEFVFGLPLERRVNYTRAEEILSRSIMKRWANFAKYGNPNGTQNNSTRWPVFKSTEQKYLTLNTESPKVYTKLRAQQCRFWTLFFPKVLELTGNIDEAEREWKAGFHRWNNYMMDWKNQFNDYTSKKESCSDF

Q: Which inhibition at 1000 µM does the source give for `Oc1cccc(C=NNc2nc(-c3ccc(C(F)(F)F)cc3)cs2)c1` [2a, 3-[(2-{4-[4-(Trifluoromethyl)phenyl]thiazol-2-yl}hydrazineylidene)methyl]phenol] here?
A: The inhibition at 1000 µM was > 50%.

Q: How did the inhibition at 1000 µM turn out when `Oc1ccc(C=NNc2nc(-c3ccc(C(F)(F)F)cc3)cs2)cc1` [2b, 4-[(2-{4-[4-(Trifluoromethyl)phenyl]thiazol-2-yl}hydrazineylidene)methyl]phenol] was run?
A: Its inhibition at 1000 µM is > 50%.

Q: With `Oc1cccc(C=NNc2nc(-c3ccc(C(F)(F)F)cc3)cs2)c1O` [2c, 3-[(2-{4-[4-(Trifluoromethyl)phenyl]thiazol-2-yl}hydrazineylidene)methyl]benzene-1,2-diol] as the compound, how does the inhibition at 1000 µM read?
A: Its inhibition at 1000 µM is 43.6 ± 0.955%.

Q: How did the inhibition at 1000 µM turn out when `COc1ccccc1C=NNc1nc(-c2ccc(C(F)(F)F)cc2)cs1` [2d, 2-[2-(2-Methoxybenzylidene)hydrazineyl]-4-[4-(trifluoromethyl)phenyl]thiazole] was run?
A: Its inhibition at 1000 µM is > 50%.

Q: `COc1cccc(C=NNc2nc(-c3ccc(C(F)(F)F)cc3)cs2)c1` [2e, 2-[2-(3-Methoxybenzylidene)hydrazineyl]-4-[4-(trifluoromethyl)phenyl]thiazole] was tested. Which inhibition at 1000 µM did it give?
A: Its inhibition at 1000 µM is > 50%.

Q: `COc1cccc(C=NNc2nc(-c3ccc(C(F)(F)F)cc3)cs2)c1OC` [2f, 2-[2-(2,3-Dimethoxybenzylidene)hydrazineyl]-4-[4-(trifluoromethyl)phenyl]thiazole] was tested. Which inhibition at 1000 µM did it give?
A: Its inhibition at 1000 µM is 40.9 ± 0.895%.

Same assay, conditions: read-out: BChE % Inhibition 10^−4 M, compound at 10^−4 M; mean ± SD

Q: Which inhibition at 100 µM does the source give for `Oc1cccc(C=NNc2nc(-c3ccc(C(F)(F)F)cc3)cs2)c1` [2a, 3-[(2-{4-[4-(Trifluoromethyl)phenyl]thiazol-2-yl}hydrazineylidene)methyl]phenol] here?
A: Its inhibition at 100 µM is 42.5 ± 0.978%.

Q: With `Oc1ccc(C=NNc2nc(-c3ccc(C(F)(F)F)cc3)cs2)cc1` [2b, 4-[(2-{4-[4-(Trifluoromethyl)phenyl]thiazol-2-yl}hydrazineylidene)methyl]phenol] as the compound, how does the inhibition at 100 µM read?
A: The inhibition at 100 µM was 40.5 ± 0.71%.

Q: How did the inhibition at 100 µM turn out when `Oc1cccc(C=NNc2nc(-c3ccc(C(F)(F)F)cc3)cs2)c1O` [2c, 3-[(2-{4-[4-(Trifluoromethyl)phenyl]thiazol-2-yl}hydrazineylidene)methyl]benzene-1,2-diol] was run?
A: Its inhibition at 100 µM is 32.5 ± 0.721%.

Q: With `COc1ccccc1C=NNc1nc(-c2ccc(C(F)(F)F)cc2)cs1` [2d, 2-[2-(2-Methoxybenzylidene)hydrazineyl]-4-[4-(trifluoromethyl)phenyl]thiazole] as the compound, how does the inhibition at 100 µM read?
A: Its inhibition at 100 µM is 43.8 ± 0.895%.

Q: `COc1cccc(C=NNc2nc(-c3ccc(C(F)(F)F)cc3)cs2)c1` [2e, 2-[2-(3-Methoxybenzylidene)hydrazineyl]-4-[4-(trifluoromethyl)phenyl]thiazole] was tested. Which inhibition at 100 µM did it give?
A: The inhibition at 100 µM was 41.6 ± 0.907%.

Q: With `COc1cccc(C=NNc2nc(-c3ccc(C(F)(F)F)cc3)cs2)c1OC` [2f, 2-[2-(2,3-Dimethoxybenzylidene)hydrazineyl]-4-[4-(trifluoromethyl)phenyl]thiazole] as the compound, how does the inhibition at 100 µM read?
A: The inhibition at 100 µM was 31.5 ± 0.82%.

Each compound was assayed against AChE (Electrophorus electricus, UniProt O42275) (assay: AChE inhibition, modified Ellman spectrophotometric method). Settings: not given.
AChE, sequence (O42275 24-633): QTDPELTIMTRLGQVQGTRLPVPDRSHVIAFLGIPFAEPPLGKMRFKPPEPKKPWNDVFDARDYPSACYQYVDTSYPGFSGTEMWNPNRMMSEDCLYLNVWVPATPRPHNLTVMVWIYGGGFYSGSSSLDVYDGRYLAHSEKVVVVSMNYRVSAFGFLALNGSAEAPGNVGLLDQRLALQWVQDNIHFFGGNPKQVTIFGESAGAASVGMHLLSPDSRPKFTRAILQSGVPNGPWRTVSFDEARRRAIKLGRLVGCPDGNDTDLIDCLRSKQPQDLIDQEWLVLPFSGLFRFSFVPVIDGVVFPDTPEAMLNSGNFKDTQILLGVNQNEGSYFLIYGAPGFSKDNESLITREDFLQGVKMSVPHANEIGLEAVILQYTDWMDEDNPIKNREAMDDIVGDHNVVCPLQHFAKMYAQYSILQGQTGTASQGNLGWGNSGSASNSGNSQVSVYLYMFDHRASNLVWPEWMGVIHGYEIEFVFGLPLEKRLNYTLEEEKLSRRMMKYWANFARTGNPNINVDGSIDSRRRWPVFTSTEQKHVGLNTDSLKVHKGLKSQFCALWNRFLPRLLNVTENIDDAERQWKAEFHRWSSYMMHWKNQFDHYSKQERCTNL
Assay type: biochemical
Protocol: as §1, §2, §3, §4

Q: Which “AChE inhibition profile in words” value does the source give for `COc1ccccc1C=NNc1nc(-c2ccc(C(F)(F)F)cc2)cs1` [2d, 2-[2-(2-Methoxybenzylidene)hydrazineyl]-4-[4-(trifluoromethyl)phenyl]thiazole] here?
A: The value was “moderate”.

Same assay, conditions: read-out: AChE % Inhibition 10^-5 M

Q: `Oc1cccc(C=NNc2nc(-c3ccc(C(F)(F)F)cc3)cs2)c1` [2a, 3-[(2-{4-[4-(Trifluoromethyl)phenyl]thiazol-2-yl}hydrazineylidene)methyl]phenol] was tested. Which inhibition at 10 µM did it give?
A: Its inhibition at 10 µM is 81.2%.

Q: Which inhibition at 10 µM does the source give for `Oc1ccc(C=NNc2nc(-c3ccc(C(F)(F)F)cc3)cs2)cc1` [2b, 4-[(2-{4-[4-(Trifluoromethyl)phenyl]thiazol-2-yl}hydrazineylidene)methyl]phenol] here?
A: Its inhibition at 10 µM is 74.6%.

Q: With `COc1ccccc1C=NNc1nc(-c2ccc(C(F)(F)F)cc2)cs1` [2d, 2-[2-(2-Methoxybenzylidene)hydrazineyl]-4-[4-(trifluoromethyl)phenyl]thiazole] as the compound, how does the inhibition at 10 µM read?
A: The inhibition at 10 µM was 78.1%.

Q: How did the inhibition at 10 µM turn out when `COc1cccc(C=NNc2nc(-c3ccc(C(F)(F)F)cc3)cs2)c1` [2e, 2-[2-(3-Methoxybenzylidene)hydrazineyl]-4-[4-(trifluoromethyl)phenyl]thiazole] was run?
A: The inhibition at 10 µM was 81.8%.

Same assay, conditions: read-out: AChE % Inhibition 10^-6 M

Q: Which inhibition at 1 µM does the source give for `Oc1cccc(C=NNc2nc(-c3ccc(C(F)(F)F)cc3)cs2)c1` [2a, 3-[(2-{4-[4-(Trifluoromethyl)phenyl]thiazol-2-yl}hydrazineylidene)methyl]phenol] here?
A: Its inhibition at 1 µM is 74.2%.

Q: How did the inhibition at 1 µM turn out when `Oc1ccc(C=NNc2nc(-c3ccc(C(F)(F)F)cc3)cs2)cc1` [2b, 4-[(2-{4-[4-(Trifluoromethyl)phenyl]thiazol-2-yl}hydrazineylidene)methyl]phenol] was run?
A: The inhibition at 1 µM was 63.8%.

Q: For `COc1ccccc1C=NNc1nc(-c2ccc(C(F)(F)F)cc2)cs1` [2d, 2-[2-(2-Methoxybenzylidene)hydrazineyl]-4-[4-(trifluoromethyl)phenyl]thiazole], which inhibition at 1 µM is on record?
A: Its inhibition at 1 µM is 67.3%.

Q: `COc1cccc(C=NNc2nc(-c3ccc(C(F)(F)F)cc3)cs2)c1` [2e, 2-[2-(3-Methoxybenzylidene)hydrazineyl]-4-[4-(trifluoromethyl)phenyl]thiazole] was tested. Which inhibition at 1 µM did it give?
A: Its inhibition at 1 µM is 74.8%.

Same assay, conditions: read-out: AChE % Inhibition 10^-7 M

Q: Which inhibition at 0.1 µM does the source give for `Oc1cccc(C=NNc2nc(-c3ccc(C(F)(F)F)cc3)cs2)c1` [2a, 3-[(2-{4-[4-(Trifluoromethyl)phenyl]thiazol-2-yl}hydrazineylidene)methyl]phenol] here?
A: The inhibition at 0.1 µM was 61%.

Q: With `Oc1ccc(C=NNc2nc(-c3ccc(C(F)(F)F)cc3)cs2)cc1` [2b, 4-[(2-{4-[4-(Trifluoromethyl)phenyl]thiazol-2-yl}hydrazineylidene)methyl]phenol] as the compound, how does the inhibition at 0.1 µM read?
A: The inhibition at 0.1 µM was 58%.

Q: `COc1ccccc1C=NNc1nc(-c2ccc(C(F)(F)F)cc2)cs1` [2d, 2-[2-(2-Methoxybenzylidene)hydrazineyl]-4-[4-(trifluoromethyl)phenyl]thiazole] was tested. Which inhibition at 0.1 µM did it give?
A: The inhibition at 0.1 µM was 55.9%.

Q: For `COc1cccc(C=NNc2nc(-c3ccc(C(F)(F)F)cc3)cs2)c1` [2e, 2-[2-(3-Methoxybenzylidene)hydrazineyl]-4-[4-(trifluoromethyl)phenyl]thiazole], which inhibition at 0.1 µM is on record?
A: The inhibition at 0.1 µM was 62.4%.

Same assay, conditions: read-out: AChE % Inhibition 10^-8 M

Q: For `Oc1cccc(C=NNc2nc(-c3ccc(C(F)(F)F)cc3)cs2)c1` [2a, 3-[(2-{4-[4-(Trifluoromethyl)phenyl]thiazol-2-yl}hydrazineylidene)methyl]phenol], which inhibition at 0.01 µM is on record?
A: The inhibition at 0.01 µM was 41.3%.

Q: Which inhibition at 0.01 µM does the source give for `Oc1ccc(C=NNc2nc(-c3ccc(C(F)(F)F)cc3)cs2)cc1` [2b, 4-[(2-{4-[4-(Trifluoromethyl)phenyl]thiazol-2-yl}hydrazineylidene)methyl]phenol] here?
A: Its inhibition at 0.01 µM is 43.9%.

Q: For `COc1ccccc1C=NNc1nc(-c2ccc(C(F)(F)F)cc2)cs1` [2d, 2-[2-(2-Methoxybenzylidene)hydrazineyl]-4-[4-(trifluoromethyl)phenyl]thiazole], which inhibition at 0.01 µM is on record?
A: The inhibition at 0.01 µM was 38.2%.

Q: Which inhibition at 0.01 µM does the source give for `COc1cccc(C=NNc2nc(-c3ccc(C(F)(F)F)cc3)cs2)c1` [2e, 2-[2-(3-Methoxybenzylidene)hydrazineyl]-4-[4-(trifluoromethyl)phenyl]thiazole] here?
A: Its inhibition at 0.01 µM is 44.3%.

Same assay, conditions: read-out: AChE % Inhibition 10^-9 M

Q: `Oc1cccc(C=NNc2nc(-c3ccc(C(F)(F)F)cc3)cs2)c1` [2a, 3-[(2-{4-[4-(Trifluoromethyl)phenyl]thiazol-2-yl}hydrazineylidene)methyl]phenol] was tested. Which inhibition at 0.001 µM did it give?
A: Its inhibition at 0.001 µM is 20.4%.

Q: Which inhibition at 0.001 µM does the source give for `Oc1ccc(C=NNc2nc(-c3ccc(C(F)(F)F)cc3)cs2)cc1` [2b, 4-[(2-{4-[4-(Trifluoromethyl)phenyl]thiazol-2-yl}hydrazineylidene)methyl]phenol] here?
A: The inhibition at 0.001 µM was 21.2%.

Q: For `COc1ccccc1C=NNc1nc(-c2ccc(C(F)(F)F)cc2)cs1` [2d, 2-[2-(2-Methoxybenzylidene)hydrazineyl]-4-[4-(trifluoromethyl)phenyl]thiazole], which inhibition at 0.001 µM is on record?
A: Its inhibition at 0.001 µM is 29.8%.

Q: With `COc1cccc(C=NNc2nc(-c3ccc(C(F)(F)F)cc3)cs2)c1` [2e, 2-[2-(3-Methoxybenzylidene)hydrazineyl]-4-[4-(trifluoromethyl)phenyl]thiazole] as the compound, how does the inhibition at 0.001 µM read?
A: Its inhibition at 0.001 µM is 21.6%.

Same assay, conditions: read-out: AChE % Inhibition 10^−3 M

Q: Which inhibition at 1000 µM does the source give for `Oc1cccc(C=NNc2nc(-c3ccc(C(F)(F)F)cc3)cs2)c1` [2a, 3-[(2-{4-[4-(Trifluoromethyl)phenyl]thiazol-2-yl}hydrazineylidene)methyl]phenol] here?
A: The inhibition at 1000 µM was 93.4 ± 1.65%.

Q: How did the inhibition at 1000 µM turn out when `Oc1ccc(C=NNc2nc(-c3ccc(C(F)(F)F)cc3)cs2)cc1` [2b, 4-[(2-{4-[4-(Trifluoromethyl)phenyl]thiazol-2-yl}hydrazineylidene)methyl]phenol] was run?
A: Its inhibition at 1000 µM is 90.3 ± 1.45%.

Q: How did the inhibition at 1000 µM turn out when `Oc1cccc(C=NNc2nc(-c3ccc(C(F)(F)F)cc3)cs2)c1O` [2c, 3-[(2-{4-[4-(Trifluoromethyl)phenyl]thiazol-2-yl}hydrazineylidene)methyl]benzene-1,2-diol] was run?
A: Its inhibition at 1000 µM is 78.2 ± 1.02%.

Q: With `COc1ccccc1C=NNc1nc(-c2ccc(C(F)(F)F)cc2)cs1` [2d, 2-[2-(2-Methoxybenzylidene)hydrazineyl]-4-[4-(trifluoromethyl)phenyl]thiazole] as the compound, how does the inhibition at 1000 µM read?
A: Its inhibition at 1000 µM is 89.5 ± 2.04%.

Q: With `COc1cccc(C=NNc2nc(-c3ccc(C(F)(F)F)cc3)cs2)c1` [2e, 2-[2-(3-Methoxybenzylidene)hydrazineyl]-4-[4-(trifluoromethyl)phenyl]thiazole] as the compound, how does the inhibition at 1000 µM read?
A: The inhibition at 1000 µM was 90.6 ± 1.81%.

Q: How did the inhibition at 1000 µM turn out when `COc1cccc(C=NNc2nc(-c3ccc(C(F)(F)F)cc3)cs2)c1OC` [2f, 2-[2-(2,3-Dimethoxybenzylidene)hydrazineyl]-4-[4-(trifluoromethyl)phenyl]thiazole] was run?
A: Its inhibition at 1000 µM is 71.7 ± 1.4%.

Same assay, conditions: read-out: AChE % Inhibition 10^−4 M

Q: How did the inhibition at 100 µM turn out when `Oc1cccc(C=NNc2nc(-c3ccc(C(F)(F)F)cc3)cs2)c1` [2a, 3-[(2-{4-[4-(Trifluoromethyl)phenyl]thiazol-2-yl}hydrazineylidene)methyl]phenol] was run?
A: Its inhibition at 100 µM is 90.5 ± 1.32%.

Q: How did the inhibition at 100 µM turn out when `Oc1ccc(C=NNc2nc(-c3ccc(C(F)(F)F)cc3)cs2)cc1` [2b, 4-[(2-{4-[4-(Trifluoromethyl)phenyl]thiazol-2-yl}hydrazineylidene)methyl]phenol] was run?
A: The inhibition at 100 µM was 82.2 ± 1.48%.

Q: Which inhibition at 100 µM does the source give for `Oc1cccc(C=NNc2nc(-c3ccc(C(F)(F)F)cc3)cs2)c1O` [2c, 3-[(2-{4-[4-(Trifluoromethyl)phenyl]thiazol-2-yl}hydrazineylidene)methyl]benzene-1,2-diol] here?
A: The inhibition at 100 µM was 45.1 ± 0.971%.

Q: With `COc1ccccc1C=NNc1nc(-c2ccc(C(F)(F)F)cc2)cs1` [2d, 2-[2-(2-Methoxybenzylidene)hydrazineyl]-4-[4-(trifluoromethyl)phenyl]thiazole] as the compound, how does the inhibition at 100 µM read?
A: Its inhibition at 100 µM is 82.4 ± 1.7%.

Q: For `COc1cccc(C=NNc2nc(-c3ccc(C(F)(F)F)cc3)cs2)c1` [2e, 2-[2-(3-Methoxybenzylidene)hydrazineyl]-4-[4-(trifluoromethyl)phenyl]thiazole], which inhibition at 100 µM is on record?
A: Its inhibition at 100 µM is 85.4 ± 1.73%.

Q: Which inhibition at 100 µM does the source give for `COc1cccc(C=NNc2nc(-c3ccc(C(F)(F)F)cc3)cs2)c1OC` [2f, 2-[2-(2,3-Dimethoxybenzylidene)hydrazineyl]-4-[4-(trifluoromethyl)phenyl]thiazole] here?
A: The inhibition at 100 µM was 40.5 ± 0.89%.
